Data published in patent US8440615B2, “Pharmaceutical and/or cosmetic composition containing active-principle activators of aconitase” (Societe d'Extraction des Principes Actifs (Vincience), priority 2007, dated 2013).
Values belong to the molecule of their own block, whether it stands above or below them. Residues, ends and D or L forms follow the SMILES beside them.

Columns and labels:
aconitase = experiment: Total (cytoplasmic and mitochondrial) enzymatic activity of aconitase in fibroblasts, Bioxytech Aconitase-340 kit; type: cell-based, human
Procedure: (§1) The aim of this study was to determine the effect of the SEQ ID No. 2 peptide on the enzymatic activity of aconitase. For this, the total enzymatic activity (cytoplasmic and mitochondrial) and the mitochondrial enzymatic activity of aconitase were measured.
Protocol: Normal human fibroblasts were treated with a 1% solution of a 50-ppm SEQ ID No. 2 peptide representative of the peptide family according to the invention, for 48 hr, and were then subjected to UVB radiation of 100 mJ/cm^2. After irradiation, the cells were treated under the same conditions for another 24 hr. Negative controls were achieved under the same conditions, but in the absence of the SEQ ID No. 2 peptide.
To evaluate the enzymatic activity of aconitase, the fibroblasts were then collected and centrifuged in PBS buffer. […]
(§2) The measurement of the enzymatic activity of aconitase was made using the Oxis Bioxytech Aconitase-340 assay kit (Oxis International), according to the following principle: aconitase causes isomerization of the citrate to isocitrate. […] It is the formation of NADPH that is quantified spectrophotometrically at 340 nm. Under the experimental conditions chosen, the rate of NADPH formation is proportional to the quantity of aconitase. The analysis of the kinetics of NADPH appearance enables the concentration of aconitase in the sample to be calculated (in mU/ml)

mitochondrial aconitase = target: T1, mitochondrial aconitase (Homo sapiens, UniProt Q99798); experiment: Enzymatic activity of mitochondrial aconitase in the mitochondrial fraction of fibroblasts, Bioxytech Aconitase-340 kit; type: cell-based; conditions: concentration printed as 0.05 ppm
T1 construct: endogenous in cells; host or cells: normal human fibroblasts, mitochondrial fraction (10,000 g pellet)
T1 sequence (Q99798 28-780): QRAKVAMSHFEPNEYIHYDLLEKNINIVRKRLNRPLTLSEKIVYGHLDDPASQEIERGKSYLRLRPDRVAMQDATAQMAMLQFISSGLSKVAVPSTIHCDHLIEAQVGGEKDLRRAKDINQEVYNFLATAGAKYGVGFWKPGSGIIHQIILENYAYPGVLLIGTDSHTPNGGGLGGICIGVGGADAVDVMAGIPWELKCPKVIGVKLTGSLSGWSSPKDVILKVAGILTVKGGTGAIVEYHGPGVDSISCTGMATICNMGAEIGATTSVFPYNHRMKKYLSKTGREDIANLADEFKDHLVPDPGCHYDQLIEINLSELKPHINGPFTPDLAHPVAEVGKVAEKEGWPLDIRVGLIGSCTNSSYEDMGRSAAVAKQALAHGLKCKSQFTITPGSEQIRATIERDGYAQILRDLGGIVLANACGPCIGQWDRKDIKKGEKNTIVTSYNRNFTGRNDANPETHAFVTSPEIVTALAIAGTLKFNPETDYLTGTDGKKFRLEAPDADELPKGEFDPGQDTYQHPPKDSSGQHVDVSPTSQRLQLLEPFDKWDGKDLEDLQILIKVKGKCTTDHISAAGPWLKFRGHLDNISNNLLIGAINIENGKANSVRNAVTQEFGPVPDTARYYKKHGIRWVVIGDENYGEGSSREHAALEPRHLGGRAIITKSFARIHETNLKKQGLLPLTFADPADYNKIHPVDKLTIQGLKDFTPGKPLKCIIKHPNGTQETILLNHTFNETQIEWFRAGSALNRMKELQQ
Procedure: as §1
[…] After irradiation, the cells were treated under the same conditions for another 24 hr. Negative controls were achieved under the same conditions, but in the absence of the SEQ ID No. 2 peptide.
To evaluate the enzymatic activity of aconitase, the fibroblasts were then collected and centrifuged in PBS buffer. A portion of the cells was then processed to measure total enzymatic activity; another portion was used to isolate the mitochondrial fraction according to the following protocol. […]
as §2

human dermal fibroblasts = type: cell-based; conditions: 48 h, 0.5 ppm
Procedure: The aim of this study was to determine the protective effect of the SEQ ID No. 2 peptide with respect to dermal fibroblasts subjected to an oxidative stress caused by oxygenated water (H2O2) in a concentration of 4 mM or 5 mM. For this, cellular viability tests were performed using the MTT technique. Protocol: Human dermal fibroblasts were treated with a 1% solution of a 50-ppm SEQ ID No. 2 peptide for 24 hours, subjected to an oxidative stress caused by 4 mM or 5 mM of H2O2 for 30 minutes, and then cultivated for another 24 hours in the presence of the same concentration of SEQ ID No. 2 peptide. Controls treated with neither the peptide nor H2O2 and controls treated with the peptide alone were achieved under the same conditions. At the end of the experiment, the cells were incubated in a solution containing 0.1 mg/ml of MTT (3-[4,5-dimethylthiazole-2-yl]-2,5-diphenyltetrazolium bromide) according to the protocol described in example 3

[1] = test system: primary human fibroblasts; experiment: Comet test (single-cell gel electrophoresis), DNA damage after UVB irradiation; type: cell-based; conditions: UVB 100 mJ/cm^2, 0.5 ppm peptide
Procedure: A study of the cytoprotective effect of SEQ ID No. 2 peptide was made by evaluating the damage caused at the DNA level. This study was done using the comet (or single-cell gel electrophoresis) test, a quick and sensitive micro-electrophoretic technique that enables breaks in the DNA to be visualized and quantified in individual cells.
Protocol: Primary human fibroblasts were seeded in […] dishes. When the cells reached 70% coalescence, they were treated with SEQ ID No. 2 peptide diluted to 1% (starting from a 50-ppm solution) for 24 hours. The cells were then subjected to UVB irradiation at 100 mJ/cm^2, then cultivated in the presence of the peptide for another 24 hours. The dishes not treated with the peptide served as controls. A cellular suspension of 100,000 cells/ml was then achieved, 500 μl were removed, inserted into an agarose solution, and run between slide and cover glass. The cells were lysed in the cold. The DNA was then denatured with an alkaline buffer and subjected to a brief electrophoresis (250 mA for 30 minutes), and stained with propidium iodate. The slides were then observed under a fluorescence microscope. An altered cell sees its DNA stretch toward the anode in proportion to the number of breaks present in the DNA, and it forms a “comet”. The highly degraded DNA is found in the “tail” of the comet. An intact cell remains round, and its DNA is then packed into the area of the comet “head”.
The evaluation of DNA breaks was done using image-analyzer software that enables the percentage of DNA degradation to be determined, by means of a quantitative evaluation of the “tail moment”, a parameter defined as the product of the length of the comet by the percentage of DNA in its distal portion.

[2] = test system: normal human keratinocytes; experiment: Ultrastructure of mitochondria by electron microscopy; type: cell-based; conditions: 1% solution of a 50-ppm mother-solution for 72 hours
Procedure: The aim of this study was to determine the action of the SEQ ID No. 2 peptide on mitochondria, by observing the ultrastructures with the electron microscope.
Protocol: Normal human keratinocytes were treated with a 1% solution of a 50-ppm mother-solution of SEQ ID No. 2 peptide for 72 hours. Negative controls were achieved under the same conditions, but in the absence of the said peptide.
The cells were then fixed using Karnovsky's fixative (20 ml of 16% paraformaldehyde/8 ml of 50% glutaraldehyde/25 ml of 0.2 M sodium phosphate buffer/25 ml of water) for 1 hr at ambient temperature, and then left overnight at 4° C. The culture media were scraped into the Karnovsky's fixative and then the cells were centrifuged for 5 minutes at 5000 rpm. The supernatant was isolated and the pellet resuspended in 1 ml of 0.1 M cacodylate. The samples were then kept at 4° C. until their processing for electron microscopy observation.

dermal fibroblasts = experiment: Intracellular ATP synthesis, ATP Bioluminescence Assay Kit HS II; type: cell-based; conditions: 1% solution of a 50-ppm peptide solution
Procedure: The aim of this study was to determine the effect of the SEQ ID No. 1 peptide on mitochondrial activity. It is the ATP produced by the mitochondria that serves as a biochemical marker for this activity.
Protocol: This study was conducted using an ATP Bioluminescence Assay Kit HS II (Roche Applied Science). Dermal fibroblasts were treated with a 1% solution of a 50-ppm solution containing the SEQ ID No. 1 peptide, representative of the peptide family according to the invention, for a period of 1 to 3 hours. At the end of the incubation time, the tubes were emptied of their medium and rinsed with 2 ml of cold PBS before adding 250 μl of a lysing buffer provided in the kit. The cells of each tube were then scraped up and collected in 14-ml tubes. Each tube was rinsed with 2×500 μl of cold PBS, and the whole was collected again in the respective tubes. […] The ATP measurement was performed on these samples: 50 μl of this dilution was placed in a Luma cuvette and 50 μl of […] was added. After 10 seconds, the luminescence reading was begun. The values were standardized relative to the quantity of proteins for each sample. The measurements were made using the Biocounter M2010A Luma®/3M equipment.

enzymatic activity of mitochondrial aconitase (mitochondrial aconitase): strongly stimulates
Molecule: CC[C@H](C)[C@H](NC(=O)[C@H](CS)NC(=O)[C@@H](N)CO)C(=O)N[C@@H](CC(N)=O)C(=O)N[C@H](C(N)=O)[C@@H](C)O [SEQ ID No. 2, Ser-Cys-Ile-Asn-Thr-NH2] (H-SCINT-NH2; N-terminus assumed)
increase in total enzymatic activity of aconitase compared with untreated control cells (aconitase; not irradiated, 1% solution of a 50-ppm peptide, n=5): 56.3% | % viability (human dermal fibroblasts): 121.13% | reduction of "tail moment" (DNA damage) ([1]; versus UVB control): 25% | Measurement of "tail moment" ([1]; UVB control 106,563): 80,221 | % of "tail moment" relative to UV control ([1]; UVB control = 100): 75% | ultrastructural characteristics of the organelles [2]: ultrastructural characteristics suggesting an increase in metabolic activity

Molecule: Ser-Cys-Ile-Asn-Ser (SCINS) [SEQ ID No. 5]
total enzymatic activity of aconitase after UVB irradiation (aconitase; UVB 100 mJ/cm^2, peptide treatment before (48 hr) and after (24 hr) irradiation): enabled the observed reduction to be limited

Molecule: Ser-Cys-Ile-Asn-Thr (SCINT) [SEQ ID No. 1]
amount of intracellular ATP compared to the untreated cells (dermal fibroblasts; after 3 hours): clear increase | increase in the amount of intracellular ATP compared to the untreated cells (dermal fibroblasts; after one hour): 43%
